According to US20060111342A1, “Insecticidal tricyclic derivatives” (priority 2002, published 2006):

These molecules were tested on cotton aphid (Aphis gossypii) (assay: Cotton aphid test in the same manner, more definitive percent mortality at selected rates and exposure times (Table 3)). Details: 100 ppm; 72 hours exposure.
Type: in vivo
Protocol: The compounds of formula I useful in the present invention were tested for insecticidal activity by observing mortality in a population of cotton aphid (Aphis gossypii) on treated cotton plants caused by a test compound, when compared to like populations of cotton aphid on untreated plants. These tests were conducted in the following manner:
For each rate of application of test compound, two seven-to-ten days old cotton seedlings (Gossypium hirsutium) grown in 7.6 cm diameter pots were selected for the test. Each test plant was infested with about 120 adult cotton aphids by placing onto each test plant cuttings of leaves from cotton plants grown in a cotton aphid colony. Once infested, the test plants were maintained for up to about 12 hours to allow complete translocation of the aphids onto the test plant. A solution comprising 1000 part per million (ppm) of each test compound was prepared by dissolving 10 milligrams of the test compound in 1 mL of acetone. Each solution was then diluted with 9 mL of a solution of 0.03 mL of polyoxyethylene(10) isooctylphenyl ether in 100 mL of water. About 2.5 mL of solution of each test compound was needed to spray each replicate of test plant (5 mL total for each test compound). If needed, the solution of 1000 ppm of test compound was serially diluted with a solution of 10% acetone and 300 ppm of polyoxyethylene(10) isooctylphenyl ether in water to provide solutions of each test compound for lower rates of application, for example, 300 ppm, 100 ppm, 30 ppm, or 10 ppm. Each replicate of test plant was sprayed with the solutions of test compound until run-off on both the upper and lower surfaces of the leaves. All the test plants were sprayed using a DeVilbus Atomizer Model 152 (Sunrise Medical, Carlsbad, Calif.) at a pressure of about 0.63-0.74 kilogram per square centimeter from a distance of about 30.5 centimeters from the test plants. For comparison purposes, a solution of a standard, such as amitraz or demethylchlordimeform (DCDM), prepared in a manner analogous to that set forth above, as well as a solution of 10% acetone and 300 ppm of polyoxyethylene(10) isooctylphenyl ether in water containing no test compound were also sprayed onto test plants. Upon completion of spraying the solutions of test compound, the solution of standard, and the solution containing no test compound, the plants were allowed to dry. […] After this time, each plant was assessed for percent mortality caused by the test compound when compared to the population of aphids that was infested onto the test plants prior to treatment with test compound. […] If there was 75% mortality or greater of the cotton aphid, a test compound was designated as being more insecticidally active (A).
In a test conducted in the same manner as set forth above, certain compounds of formula I were tested to determine a more definitive percent mortality of cotton aphid.

Structure (SMILES) | Percent Mortality of Cotton Aphid on Cotton Plants
CN1CCC(=C2c3ccccc3Oc3ccc(F)cc32)CC1 [Compound 9] | 26%
CCc1ccc2c(c1)C(=C1CCN(C)CC1)c1ccccc1O2 [Compound 12] | 26%
CCOC(=O)CCN1CCC(=C2c3ccccc3Oc3ccccc32)CC1 [Compound 20] | 37%
CN1CCC(=C2c3ccccc3COc3ccccc32)CC1.Cl [Compound 26] | 84%
CN1CCN(C2Cc3cc(Cl)ccc3Sc3cc(Cl)ccc32)CC1 (stereo not shown) [Compound 92] | 48%
CN1CCN(C2Cc3ccccc3Sc3c(F)ccc(F)c32)CC1 (stereo not shown) [Compound 97] | 65%
COc1ccc2c(c1)Sc1ccccc1CC2N1CCN(C)CC1 (stereo not shown) [Compound 101] | 60%
COc1cccc2c1Sc1ccccc1CC2N1CCN(C)CC1 (stereo not shown) [Compound 102] | 33%
Cc1cc2c(cc1F)Sc1ccccc1CC2N1CCN(C)CC1 (stereo not shown) [Compound 111] | 94%
CN1CCN(C2Cc3ccccc3Sc3cccc(C4CC4)c32)CC1 (stereo not shown) [Compound 112] | 92%
CN1CCN(C2Cc3ccccc3Sc3ccc(C4CCCC4)cc32)CC1 (stereo not shown) [Compound 113] | 78%
CC(=O)c1ccc2c(c1)C(N1CCN(C)CC1)Cc1ccccc1S2 (stereo not shown) [Compound 115] | 93%
CN1CCN(C2Cc3cc(F)ccc3Sc3ccccc32)CC1 (stereo not shown) [Compound 118] | 85%
CN1CCN(C2Cc3ccc(F)cc3Sc3ccccc32)CC1 (stereo not shown) [Compound 119] | 85%
CSc1ccc2c(c1)C(N1CCN(C)CC1)Cc1cc(F)ccc1S2 (stereo not shown) [Compound 122] | 88%
CSc1ccc2c(c1)C(N1CCN(C)CC1)Cc1ccc(F)cc1S2 (stereo not shown) [Compound 123] | 96%
CCSc1ccc2c(c1)C(N1CCN(C)CC1)Cc1ccc(F)cc1S2 (stereo not shown) [Compound 124] | 95%
CN1CCN(C2Cc3ccc(F)cc3Sc3ccc(C(F)(F)F)cc32)CC1.O=C(O)/C=C\C(=O)O.O=C(O)/C=C\C(=O)O (stereo not shown) [Compound 125] | 90%
CC(C)c1ccc2c(c1)C(N1CCN(C)CC1)Cc1ccc(F)cc1S2.O=C(O)/C=C\C(=O)O (stereo not shown) [Compound 128] | 95%

Same assay, conditions: 100 ppm; 96 hours exposure

Structure (SMILES) | Percent Mortality of Cotton Aphid on Cotton Plants
CC(C)N1CCC(=C2c3ccccc3Sc3ccccc32)CC1 [Compound 3] | 80%
CN1CCC(=C2c3ccccc3Oc3c(F)cccc32)CC1 [Compound 11] | 42%
CN1CCC(=C2c3ccccc3Oc3ccc(C(F)(F)F)cc32)CC1 [Compound 15] | 28%

Same assay, conditions: 100 ppm; 168 hours exposure

Structure (SMILES) | Percent Mortality of Cotton Aphid on Cotton Plants
CN1CCN(C2Cc3ccccc3Oc3ccc(Cl)cc32)CC1 (stereo not shown) [Compound 64] | 74%
CN1CCN(C2Cc3ccccc3Oc3ccc(Br)cc32)CC1 (stereo not shown) [Compound 65] | 100%
CN1CCN(C2Cc3ccccc3Oc3ccc(F)cc32)CC1 (stereo not shown) [Compound 66] | 61%
CN1CCN(C2Cc3ccccc3Oc3ccc(I)cc32)CC1 (stereo not shown) [Compound 67] | 75%
CN1CCN(C2Cc3ccccc3Oc3ccc(C(F)(F)F)cc32)CC1 (stereo not shown) [Compound 69] | 69%
CSc1ccc2c(c1)C(N1CCN(C)CC1)Cc1ccccc1O2 (stereo not shown) [Compound 70] | 57%
CN1CCN(C2Cc3ccccc3Oc3ccc(OC(F)(F)F)cc32)CC1 (stereo not shown) [Compound 71] | 100%
C[N+]1([O-])CCN(C2Cc3ccccc3Oc3ccc(OC(F)(F)F)cc32)CC1 (stereo not shown) [Compound 72] | 100%
CN1CCN(C2Cc3ccccc3Oc3cc(OC(F)(F)F)ccc32)CC1 (stereo not shown) [Compound 73] | 35%
CN1CCN(C2Cc3ccccc3Oc3ccc(SC(F)(F)F)cc32)CC1 (stereo not shown) [Compound 75] | 86%
CN1CCN(C2Cc3ccccc3Oc3ccc([S+]([O-])C(F)(F)F)cc32)CC1 (stereo not shown) [Compound 76] | 32%
CN1CCN(C2Cc3ccccc3Oc3ccc(S(=O)(=O)C(F)(F)F)cc32)CC1 (stereo not shown) [Compound 77] | 37%
C=Cc1ccc2c(c1)C(N1CCN(C)CC1)Cc1ccccc1O2 (stereo not shown) [Compound 78] | 53%
C#Cc1ccc2c(c1)C(N1CCN(C)CC1)Cc1ccccc1O2 (stereo not shown) [Compound 79] | 35%
CN1CCN(C2Cc3ccccc3Oc3cc(Cl)c(Cl)cc32)CC1 (stereo not shown) [Compound 82] | 98%
CN1CCN(C2Cc3ccccc3Oc3c(Cl)cc(Cl)cc32)CC1 (stereo not shown) [Compound 83] | 41%
CN1CCN(C2Cc3ccccc3Oc3c(F)cc(Br)cc32)CC1 (stereo not shown) [Compound 88] | 35%
Cc1cc(Br)cc2c1Oc1ccccc1CC2N1CCN(C)CC1 (stereo not shown) [Compound 89] | 55%
CCc1ccc2c(c1)C(N1CCN(C)CC1)Cc1ccccc1S2.O=S(=O)(O)O (stereo not shown) [Compound 98] | 90%
C[N+]1([O-])CCN(C2Cc3ccccc3Sc3ccc(OC(F)(F)F)cc32)CC1 (stereo not shown) [Compound 107] | 82%
CN1CCN(C2Cc3ccc(F)cc3Sc3ccc(OC(F)(F)F)cc32)CC1 (stereo not shown) [Compound 126] | 100%
CN1CCCN(C2Cc3ccccc3Oc3ccc(OC(F)(F)F)cc32)CC1 (stereo not shown) [Compound 186] | 100%
CN1CCN(C2=Nc3ccccc3Sc3ccc(OC(F)(F)F)cc32)CC1 [Compound 194] | 51%

Same assay, conditions: 300 ppm; 72 hours exposure

Structure (SMILES) | Percent Mortality of Cotton Aphid on Cotton Plants
CCN(CC)CCOC1Cc2ccccc2Sc2ccc(OC(F)(F)F)cc21 (stereo not shown) [Compound 52] | 100%

Same assay, conditions: 300 ppm; 168 hours exposure

Structure (SMILES) | Percent Mortality of Cotton Aphid on Cotton Plants
CN1CCN(C2Cc3ccccc3Sc3c(F)cc(Cl)cc32)CC1.O=S(O)S(=O)(=O)O (stereo not shown) [Compound 96] | 100%
CN1CCN(C2Cc3ccccc3Sc3c2ccc(Cl)c3Cl)CC1.O=C(O)/C=C\C(=O)O (stereo not shown) [Compound 110] | 65%

Same assay, conditions: 1000 ppm; 72 hours exposure

Structure (SMILES) | Percent Mortality of Cotton Aphid on Cotton Plants
CN1CCN(C2Cc3ccccc3Sc3c(F)cccc32)CC1 (stereo not shown) [Compound 94] | 100%
CN1CCN(C2Cc3ccccc3Sc3cc(F)c(Cl)cc32)CC1 (stereo not shown) [Compound 95] | 82%
CSc1ccc2c(c1)C(N1CCN(C)CC1)Cc1ccccc1S2.O=C(O)/C=C\C(=O)O (stereo not shown) [Compound 103] | 90%
CN1CCN(C2Cc3cc(F)ccc3Sc3ccc(Cl)cc32)CC1 (stereo not shown) [Compound 121] | 65%

Same assay, conditions: 1000 ppm; 96 hours exposure

Structure (SMILES) | Percent Mortality of Cotton Aphid on Cotton Plants
CN1CCN(C2Cc3ccccc3Sc3ccc(C(F)(F)F)cc32)CC1 (stereo not shown) [Compound 105] | 85%
CSc1ccc2c(c1)C(N1CCN(Cc3ccncc3)CC1)Cc1ccccc1S2 (stereo not shown) [Compound 173] | 82%

Same assay, conditions: 1000 ppm; 168 hours exposure

Structure (SMILES) | Percent Mortality of Cotton Aphid on Cotton Plants
CN1CCN(C2Cc3ccccc3Oc3ccc(C#C[Si](C)(C)C)cc32)CC1 (stereo not shown) [Compound 80] | 83%
CN1CCN(C2Cc3ccccc3Oc3c(F)cc(Cl)cc32)CC1 (stereo not shown) [Compound 85] | 92%
CN1CCN(C2Cc3ccccc3Oc3c(Cl)cc(F)cc32)CC1 (stereo not shown) [Compound 87] | 97%
CN1CCN(C2Cc3ccccc3Sc3ccccc32)CC1.O=C(O)/C=C\C(=O)O (stereo not shown) [Compound 90] | 74%
CN1CCN(C2Cc3ccc(F)cc3Sc3ccc(OC(F)(F)F)cc32)CC1 (stereo not shown) [Compound 108] | 100%
CN1CCN(C2Cc3ccccc3Sc3ccc(OC(F)(F)C(F)F)cc32)CC1 (stereo not shown) [Compound 109] | 100%
CC(C)c1ccc2c(c1)C(N1CCN(C)CC1)Cc1ccc(F)cc1S2 (stereo not shown) [Compound 127] | 100%
CSc1ccc2c(c1)C(N1CCCN(C)CC1)Cc1ccccc1S2 (stereo not shown) [Compound 183] | 100%
CN1CCCN(C2Cc3ccccc3Sc3ccc(OC(F)(F)F)cc32)CC1 (stereo not shown) [Compound 185] | 100%
CN1CCN(C2=Nc3ccccc3Sc3ccc(Cl)cc32)CC1 [Compound 189] | 55%
